Values joined by “and” are separate entries in the source; they are usually repeats but may differ in a detail not shown here. Identical values can stand only once. Where a SMILES comes first, the peptide text is derived from it. [ ]: non-standard residue; d: D form. Bpa = N[C@@H](Cc1ccc(C(=O)c2ccccc2)cc1)C(=O)O
Assays:
[1] = test system: 21-mer duplex DNA substrate (21T/21B); experiment: Binding to DNA substrate alone by fluorescence anisotropy; settings: absence of IN; concentrations up to 37 µM
Method: (§1) DNA binding was measured using a plate-based assay following fluorescence polarization of a fluorescent 21-mer duplex DNA substrate (21T/21B duplex oligonucleotide) with an AlexaFluor 488 modification at the 5′-end of the 21T oligonucleotide. Peptide or DMSO (control, without peptide) were incubated at room temperature for 5 min in the IN-activity buffer in the absence or the presence of IN (400 nM). After addition of the DNA (10 nM), fluorescence anisotropy was measured every 30 s for 30 min using an Envision plate reader (Perkin Elmer, Waltham, MA, USA).

HIV-1 integrase (IN) [2] = target: T1, HIV-1 integrase (IN) (Human immunodeficiency virus type 1 group M subtype B, UniProt P12497); experiment: In vitro integrase catalytic assay, 3'-processing (3'-P); assay type: biochemical; settings: 400 nM IN, 20 nM 32P-labeled 21T/21B DNA, 37 °C, 2 h
Method: (§2) IN reactions were performed as previously described. […] Reactions were performed at 37 °C (2 h) and quenched by the addition of an equal volume of loading buffer (formamide containing 1% sodium dodecyl sulfate, 0.25% bromophenol blue, and xylene cyanol). Reaction products were separated in 16% polyacrylamide denaturing sequencing gels. Dried gels were visualized using a Typhoon 8600 instrument (GE Healthcare, Chicago, IL, USA). Densitometric analyses were performed using ImageQuant 5.1 software (GE Healthcare, Chicago, IL, USA). Data analyses (linear regression, 50% inhibitory concentration [IC50] determination, standard deviation [SD]) were performed from at least 3 independent determinations using Prism 5.0c software from GraphPad (La Jolla, CA, USA). To assay 3′-P inhibitory potency, reactions were carried out with [γ-^32P]-labeled full-length oligonucleotide 21T ([…]) annealed to the complementary oligonucleotide 21B ([…]). Formation of the shorter processed 19T products was monitored and quantified to assess enzyme performance and inhibitor potency. The ST reactions were carried out with the [γ-^32P]-labeled pre-cleaved oligonucleotide 19T ([…]) annealed to the complementary oligonucleotide 21B ([…]) and formation of integration products (longer and slower migrating than the starting 19T substrate) was monitored to assess enzyme performance and inhibitor potency.

IN-DNA complex = IN-DNA complex (Human immunodeficiency virus type 1 group M subtype B, UniProt P12497); experiment: IN-DNA complex formation by fluorescence anisotropy; assay type: binding, HIV-1; settings: IN (400 nM) preincubated with peptide, 10 nM DNA
Method: as §1

HIV-1 integrase (IN) [3] = target: T1, HIV-1 integrase (IN); experiment: In vitro integrase catalytic assay, strand transfer (ST); assay type: biochemical; settings: 400 nM IN, 20 nM 32P-labeled pre-cleaved 19T/21B DNA, 37 °C, 2 h
Method: as §2

HIV-1 IN [4] = target: T2, HIV-1 IN (Human immunodeficiency virus type 1 group M subtype B, UniProt P12497); experiment: HTRF-based IN multimerization assay; assay type: biochemical; design: WT HIV-1 IN recombinant proteins with His or FLAG tags; made in house; host or cells: Escherichia coli; settings: 100 µM peptide
Method: WT HIV-1 IN recombinant proteins with His or FLAG tags were expressed in Escherichia coli and purified as described previously. The His6–tagged IN construct was purified by loading the cell lysate onto a Nickel-Sepharose column (GE Healthcare, Chicago, IL, USA) and eluting bound integrase with an imidazole gradient in a 50 mM HEPES (pH 7.5) buffer containing 1 M NaCl, 7.5 mM CHAPS, 2 mM beta-mercaptoethanol. Peak fractions were pooled, diluted and loaded onto a heparin column (GE Healthcare), and integrase was eluted with an increasing NaCl gradient in a 50 mM HEPES (pH 7.5) buffer containing 7.5 mM CHAPS and 2 mM beta-mercaptoethanol. The FLAG-tagged IN construct was purified by loading the ammonium sulfate precipitate of cell lysate onto a phenyl-Sepharose column (GE Healthcare) and eluting bound integrase with a decreasing ammonium sulfate gradient in a 50 mM HEPES (pH 7.5) buffer containing 200 mM NaCl, 7.5 mM CHAPS, 2 mM beta-mercaptoethanol. Peak fractions were pooled and loaded onto a heparin column (GE Healthcare), and integrase was eluted with an increasing NaCl gradient in a 50 mM HEPES (pH 7.5) buffer containing 7.5 mM CHAPS and 2 mM beta-mercaptoethanol. […] The HTRF signal was recorded using a PerkinElmer EnSpire multimode plate reader.

HIV-1 IN [5] = target: T2, HIV-1 IN; experiment: UV photo-crosslinking to IN with Western blot detection; assay type: binding; settings: 15 (111 µM), IN (3.2 µM)
Method: Peptide 15 (111 µM), containing a photo-reactive Bpa group and a biotin linked to its amino terminus, was incubated for 2 h at 37 °C in the absence or the presence of IN (3.2 µM) before UV irradiation (5 min at […]). After adding 2 × 10 µL of loading buffer, samples were heat-denatured at 95 °C (5 min). Products were separated on 16% SDS-PAGE and transferred to a PVDF membrane using an iBlot system (Invitrogen, Carlsbad, CA, USA). […] Reading was performed using an Odyssey® Infrared Imaging System (LI-COR Biotechnology, Lincoln, NE, USA).

IN = test system: IN; design: method as in PMID 17490682; settings: read-out: IN ST-inhibitory potency IC50; cited from earlier work

## CC[C@H](C)[C@H](NC(=O)[C@H](CCCNC(=N)N)NC(=O)[C@H](Cc1ccccc1)NC(=O)[C@H](Cc1c[nH]cn1)NC(=O)[C@@H](NC(=O)[C@@H](N)Cc1ccccc1)[C@@H](C)CC)C(=O)NCC(=O)O [Peptide 1a, FIHFRIG] (H-FIHFRIG-OH)
[1]
  Binding to DNA substrate alone: no detectable binding
HIV-1 integrase (IN) [2]
  IC50: 17.6 ± 1.2 µM
IN-DNA complex
  Effect on IN-DNA complex formation (fluorescence polarization): did not block the IN–DNA interactions, but rather promoted IN–DNA complex formation
HIV-1 integrase (IN) [3]
  IC50: 1 µM and 1.3 µM
HIV-1 IN [4]
  Induction of higher-order IN multimerization (HTRF signal): did not induce higher-order IN multimerization

## CC[C@H](C)[C@H](NC(=O)[C@H](C)NC(C)=O)C(=O)N[C@@H](Cc1c[nH]cn1)C(=O)N[C@@H](Cc1ccccc1)C(=O)N[C@@H](CCCNC(=N)N)C(=O)N[C@H](C(=O)NCC(N)=O)[C@@H](C)CC [Peptide 8c, Ac-AIHFRIG-amide] (Ac-AIHFRIG-NH2)
HIV-1 integrase (IN) [2]
  IC50: > 333 µM
HIV-1 integrase (IN) [3]
  IC50: 46 ± 8 µM

## CC[C@H](C)[C@H](NC(=O)[C@@H](N)Cc1ccccc1)C(=O)N[C@@H](Cc1c[nH]cn1)C(=O)N[C@@H](Cc1ccccc1)C(=O)N[C@@H](CCCNC(=N)N)C(=O)N[C@@H](Cc1ccc(C(=O)c2ccccc2)cc1)C(=O)NCC(=O)O [Peptide 9a, FIHFRBG] (H-FIHFR[Bpa]G-OH)
HIV-1 integrase (IN) [2]
  IC50: 20 ± 3 µM
HIV-1 integrase (IN) [3]
  IC50: 4 µM and 4.3 µM

## CC[C@H](C)[C@H](NC(=O)[C@H](Cc1ccc(C(=O)c2ccccc2)cc1)NC(=O)[C@H](Cc1ccccc1)NC(=O)[C@H](Cc1c[nH]cn1)NC(=O)[C@@H](NC(=O)[C@@H](N)Cc1ccccc1)[C@@H](C)CC)C(=O)NCC(=O)O [Peptide 10a, FIHFBIG] (H-FIHF[Bpa]IG-OH)
HIV-1 integrase (IN) [2]
  IC50: > 333 µM
HIV-1 integrase (IN) [3]
  IC50: ~50 µM and 48 µM

## CC[C@H](C)[C@H](NC(=O)[C@H](CCCNC(=N)N)NC(=O)[C@H](Cc1ccc(C(=O)c2ccccc2)cc1)NC(=O)[C@H](Cc1c[nH]cn1)NC(=O)[C@@H](NC(=O)[C@@H](N)Cc1ccccc1)[C@@H](C)CC)C(=O)NCC(=O)O [Peptide 11a, FIHBRIG] (H-FIH[Bpa]RIG-OH)
HIV-1 integrase (IN) [2]
  IC50: 34 ± 6 µM
HIV-1 integrase (IN) [3]
  IC50: 4.2 ± 0.7 µM

## CC[C@H](C)[C@H](NC(=O)[C@H](CCCNC(=N)N)NC(=O)[C@H](Cc1ccccc1)NC(=O)[C@H](Cc1ccc(C(=O)c2ccccc2)cc1)NC(=O)[C@@H](NC(=O)[C@@H](N)Cc1ccccc1)[C@@H](C)CC)C(=O)NCC(=O)O [Peptide 12a, FIBFRIG] (H-FI[Bpa]FRIG-OH)
HIV-1 integrase (IN) [2]
  IC50: 6.5 ± 0.9 µM
HIV-1 integrase (IN) [3]
  IC50: 2.2 ± 0.6 µM

## CC[C@H](C)[C@H](NC(=O)[C@H](CCCNC(=N)N)NC(=O)[C@H](Cc1ccccc1)NC(=O)[C@H](Cc1c[nH]cn1)NC(=O)[C@H](Cc1ccc(C(=O)c2ccccc2)cc1)NC(=O)[C@@H](N)Cc1ccccc1)C(=O)NCC(=O)O [Peptide 13a, FBHFRIG] (H-F[Bpa]HFRIG-OH)
HIV-1 integrase (IN) [2]
  IC50: 37 ± 5 µM
HIV-1 integrase (IN) [3]
  IC50: 20 ± 3 µM

## CC[C@H](C)[C@H](NC(=O)[C@H](CCCNC(=N)N)NC(=O)[C@H](Cc1ccccc1)NC(=O)[C@H](Cc1c[nH]cn1)NC(=O)[C@@H](NC(=O)[C@@H](N)Cc1ccc(C(=O)c2ccccc2)cc1)[C@@H](C)CC)C(=O)NCC(=O)O [Peptide 14a, BIHFRIG] (H-[Bpa]IHFRIG-OH)
HIV-1 integrase (IN) [2]
  IC50: 7.2 ± 1.2 µM
HIV-1 integrase (IN) [3]
  IC50: 2.1 ± 0.3 µM

## Biotin-linker-BIHFRIG [Peptide 15]
HIV-1 integrase (IN) [2]
  IC50: 32 ± 7 µM
HIV-1 integrase (IN) [3]
  IC50: 2.3 ± 0.3 µM
HIV-1 IN [5]
  Covalent crosslinking to IN upon UV irradiation: covalent adducts of 15 with IN

## QQLLFIHFRIGCQHS [Vpr (65–79)]
IN
  IC50: 14 µM

From paper PMC6222646, “HIV-1 Integrase-Targeted Short Peptides Derived from a Viral Protein R Sequence” (Molecules : A Journal of Synthetic Chemistry and Natural …, 2018)
